# Test results taken from PMC13195669, “GPR3 Ligands Discovered through Combined Virtual and Conformational Biosensor-Based Screening” (Journal of the American Chemical Society, 2026).
# Target: T1, GPR12 (Homo sapiens, UniProt P47775)
# T1 construct: expressed in transfected cells; host or cells: HEK293A, transient
# T1 sequence (P47775 1-334): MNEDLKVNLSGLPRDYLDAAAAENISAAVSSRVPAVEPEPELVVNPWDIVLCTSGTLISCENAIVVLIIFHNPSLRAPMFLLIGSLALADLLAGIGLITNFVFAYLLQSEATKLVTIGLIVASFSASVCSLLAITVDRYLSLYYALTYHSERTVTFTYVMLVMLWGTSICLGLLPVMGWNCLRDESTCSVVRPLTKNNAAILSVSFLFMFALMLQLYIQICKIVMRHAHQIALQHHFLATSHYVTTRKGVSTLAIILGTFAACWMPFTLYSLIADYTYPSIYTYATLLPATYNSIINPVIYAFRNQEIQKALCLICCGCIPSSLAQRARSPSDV
# Assay: cAMP GloSensor 22F, GPR12-transfected HEK293A cells
# Type: cell-based
# Source text: Next, we used the classical cAMP GloSensor technology to assess the target selectivity profile of 33. […] In addition, we tested the effects of 33 on cAMP changes mediated by agonist-stimulated GPCRs phylogenetically close to GPR3 and coupling to Gs or Gi/o proteins. […]
# conditioning and no constraints were applied. The poses were visually inspected and the most favorable one that coincides with the co-solved ligand according to the available structures was chosen.
# Plasmids and molecular cloning
# The H187-EPAC-FRET sensor7 was kindly provided by K. Jalink (The Netherlands Cancer Institute, Amsterdam, The Nether-lands). The BRET-based cAMP sensor CAMYEL8 was kindly provided by Laura Humphrys (University of Regensburg, Regens-burg, Germany). Plasmids encoding the conformational biosensors α2AAR- and β2AR-HaloTag/Nluc9 and the Gs heterotrimer dissociation sensor10 were previously described. The expression plasmid encoding N-terminally HA-tagged GPR3 (cat. no.
# #GPR003TN00) on a pcDNA3.1+ vector was obtained from the cDNA resource center (cdna.org). The Nluc and HaloTag in-serts were amplified with overhanging restriction sites from β2AAR- HaloTag/Nluc and ligated to the full-length C-terminus or inserted into icl3 of GPR3, respectively, to obtain the conformational biosensor GPR3-HaloTag/Nluc. […]
structure (smiles),measurement,value
N=c1n(Cc2ccccc2)c2ccccc2n1CC1CC1 [compound 33],"receptor-specific change in cAMP, GPR12",no receptor-specific changes in cAMP levels below 100 μM
